# From article PMC12406204 (Journal of Medicinal Chemistry, 2025)
# Like-named read-outs stand apart in the source and are kept apart here.
# Tests used:
# CB2R [1] = molecular target: T1, CB2R (Homo sapiens, UniProt P34972); test: CB2R cAMP determination after forskolin stimulation in transfected HEK-293T cells; assay type: cell-based; design: expressed in transfected cells; host or cells: HEK-293T, transient transfection (PEI)
# Procedure: (§1) Initially we tested their ability to modify CB2R-mediated cAMP accumulation, providing insights into their functional behavior as either agonists or antagonists (Table ). Moreover, the signaling profiles of selected ligands were investigated through their impact on β-arrestin recruitment and Mitogen-Activated Protein Kinase (MAPK) phosphorylation pathway, enabling a more comprehensive evaluation of their intracellular signaling profiles (Table ).
# HEK-293T cells were grown in Dulbecco’s Modified Eagle’s Medium (DMEM) medium (Gibco, Paisley, Scotland, United Kingdom) supplemented with 2 mM L-glutamine, 100 U/mL penicillin/streptomycin, MEM Non-Essential Amino Acids Solution (1/100) and 5% (v/v) heat inactivated Fetal Bovine Serum (FBS) (Invitrogen, Paisley, Scotland, United Kingdom). Cells were maintained in a humid atmosphere of 5% CO2 at 37 °C. Cells were transiently transfected with the PEI (Polyethylenimine, Sigma, St. Louis, MO, United States) method as previously described and used for functional assays 48 h later.
# Signaling experiments have been performed as previously described. Two hours before initiating the experiment, HEK-293T cell-culture medium was replaced by serum-starved DMEM medium. Then, cells were detached, resuspended in growing medium containing […] zardaverine (Tocris, Bristol, U.K.) and placed in 384-well microplates (2500 cells/well). Cells were pretreated (15 min) with cannabinoid compounds (1 nM to 100 μM) -or vehicle- before adding […] forskolin (Tocris, Bristol, U.K.) to induce cAMP accumulation. Readings were performed after 15 min incubation at 25 °C. Homogeneous Time Resolved Fluorescence (HTRF) energy transfer measures were performed using the Lance Ultra cAMP kit (PerkinElmer, Waltham, MA, United States). Fluorescence at 665 nm was analyzed in a PHERA star Flagship microplate reader equipped with an HTRF optical module (BMG Lab Technologies, Offenburg, Germany).
# CB2R [2] = molecular target: T1, CB2R; test: CB2R β-arrestin recruitment; assay type: cell-based; design: expressed in transfected cells; host or cells: HEK-293T, transient transfection (PEI)
# Excerpt: as §1
# (§2) JWH-133, a well-known nonbiased (balanced) agonist, was employed as the reference for comparing the signaling profiles of the tested compounds. An operational model analysis was applied to quantify the functional bias of each CB2R-selective agonist. This involved calculating the bias factor by comparing the signaling pathways: β-arrestin versus cAMP, MAPK versus cAMP, and β-arrestin versus MAPK.
# CB2R [3] = molecular target: T1, CB2R; test: CB2R MAPK phosphorylation; assay type: cell-based; design: expressed in transfected cells; host or cells: HEK-293T, transient transfection (PEI)
# Excerpt: as §1, §2
# CB1R = CB1R (Homo sapiens, UniProt P21554); design: host or cells: CHO-CB1 C3 cell line
# CB2R [4] = molecular target: T1, CB2R; design: expressed in transfected cells; host or cells: HEK-293T (HEK-CB2 cell line)
# [5] = read-out: CB1R Ki; abused SCRAs and N-methyl analogues, earlier study of the authors; cited from earlier work
# [6] = read-out: CB2R Ki; abused SCRAs and N-methyl analogues, earlier study of the authors; cited from earlier work
# [7] = at 1 μM, earlier study of the authors; cited from earlier work
# T1 sequence (P34972 whole entry): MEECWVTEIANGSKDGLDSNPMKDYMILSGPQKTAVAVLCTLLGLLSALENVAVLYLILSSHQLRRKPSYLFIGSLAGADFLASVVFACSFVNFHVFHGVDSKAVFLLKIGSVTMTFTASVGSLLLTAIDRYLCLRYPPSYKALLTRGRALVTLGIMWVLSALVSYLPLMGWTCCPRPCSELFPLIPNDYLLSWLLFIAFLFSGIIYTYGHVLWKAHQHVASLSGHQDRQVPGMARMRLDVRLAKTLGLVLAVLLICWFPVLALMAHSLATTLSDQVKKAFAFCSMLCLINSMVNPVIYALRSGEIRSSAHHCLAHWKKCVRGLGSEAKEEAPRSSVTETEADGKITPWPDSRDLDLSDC
# Sequence of CB1R (P21554 whole entry): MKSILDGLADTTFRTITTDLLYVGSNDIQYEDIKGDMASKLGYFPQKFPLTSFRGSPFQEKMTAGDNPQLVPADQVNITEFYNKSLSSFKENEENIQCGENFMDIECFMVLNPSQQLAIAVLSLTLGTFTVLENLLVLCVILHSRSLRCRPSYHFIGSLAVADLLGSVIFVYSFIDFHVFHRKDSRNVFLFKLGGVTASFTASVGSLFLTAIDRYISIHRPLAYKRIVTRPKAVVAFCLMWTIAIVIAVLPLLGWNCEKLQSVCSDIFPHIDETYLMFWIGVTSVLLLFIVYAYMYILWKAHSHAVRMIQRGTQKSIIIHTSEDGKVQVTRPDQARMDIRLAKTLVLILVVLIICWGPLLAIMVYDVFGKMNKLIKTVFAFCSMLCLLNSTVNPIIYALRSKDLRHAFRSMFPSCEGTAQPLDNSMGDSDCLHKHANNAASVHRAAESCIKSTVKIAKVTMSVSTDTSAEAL
Compound,Ki (CB1R; [5]) [nM],Ki (CB2R [4]; [6]) [nM],further results
"CCCC(C)(C)c1ccc2c(c1)OC(C)(C)[C@@H]1CC=C(C)C[C@@H]21 [JWH-133, reference compound]",,,"CB2R Emax AMPc (CB2R [1]; normalized to maximal efficacious concentration of CP 55,940): 98%; EC50 (CB2R [1]; transfected HEK-293T cells, forskolin-stimulated cAMP, read-out: CB2R EC50 AMPc): 6.73 ± 0.5 nM; EC50 (CB2R [2]): 1.34 ± 0.05 nM; CB2R Emax β-arrestin (CB2R [2]; normalized to CP 55,940): 93%; EC50 (CB2R [3]): 2.7 ± 0.19 nM; CB2R Emax MAPK (CB2R [3]; normalized to CP 55,940): 98%"
"COC(=O)[C@@H](NC(=O)c1nn(CCCCCF)c2ccccc12)C(C)(C)C [compound 1, 5F-MDMB-PINACA]",0.8,0.1,
"COC(=O)[C@@H](NC(=O)c1nn(Cc2ccc(F)cc2)c2ccccc12)C(C)(C)C [compound 2, MDMB-FUBINACA]",0.83,0.3,
"COC(=O)[C@@H](NC(=O)c1cn(CC2CCCCC2)c2ccccc12)C(C)C [compound 3, AMB-CHMICA]",10.5,3.44,
"COC(=O)[C@@H](NC(=O)c1cn(Cc2ccc(F)cc2)c2ccccc12)C(C)C [compound 4, AMB-FUBICA]",,,"Ki (CB1R; abused SCRAs and N-methyl analogues, earlier study of the authors; read-out: CB1R Ki; cited from earlier work): 47.8 nM; Ki (CB2R [4]; abused SCRAs and N-methyl analogues, earlier study of the authors; read-out: CB2R Ki; cited from earlier work): 20 nM"
"CCCCCn1nc(C(=O)N[C@H](C(N)=O)C(C)C)c2ccccc21 [compound 5, AB-PINACA]",1.16,0.94,
CC(C)[C@H](NC(=O)c1nn(CC2CCCCC2)c2ccccc12)C(N)=O [compound 6],0.9,1.1,
"CC(C)[C@H](NC(=O)c1cn(CCCCCF)c2ccccc12)C(N)=O [compound 7, 5F-AB-PICA]",14.8,8.6,
"CC(C)[C@H](NC(=O)c1cn(Cc2ccc(F)cc2)c2ccccc12)C(N)=O [compound 8, AB-FUBICA]",35.2,83.2,
"CC(C)(C)[C@H](NC(=O)c1cn(CC2CCCCC2)c2ccccc12)C(N)=O [compound 9, ADB-CHMICA]",1.1,0.76,
"CC(C)(C)[C@H](NC(=O)c1cn(Cc2ccc(F)cc2)c2ccccc12)C(N)=O [compound 10, ADB-FUBICA]",53.8,5.15,
COC(=O)CNC(=O)c1nn(Cc2ccc(F)cc2)c2ccccc12 [compound 11],181,125,
COC(=O)CN(C)C(=O)c1nn(Cc2ccc(F)cc2)c2ccccc12 [compound 12],,540,CB1R % (1 μM) (CB1R; [7]): 33%
NC(=O)CNC(=O)c1nn(CC2CCCCC2)c2ccccc12 [compound 13],268,171,
CN(CC(N)=O)C(=O)c1nn(CC2CCCCC2)c2ccccc12 [compound 14],,482,CB1R % (1 μM) (CB1R; [7]): 21%
